Experimental data from paper PMC4457840, “Differential Inhibition of Signal Peptide Peptidase Family Members by Established γ-Secretase Inhibitors” (PLoS ONE, 2015).
“Also recorded” adds a separate entry of the source. Numbered stars: 1 amine (or outer) side, 2 acyl side, 3 side chain; on linkers, the order of the positions; unused ones are H or OH. Square brackets hold non-standard residues; d marks the D form. Peptide text beside a SMILES is read from it. * marks the point of attachment. X1 = CC(N[*:1])C(=O)C(F)(F)C(=O)[*:2]; Boc = CC(C)(C)OC(=O)*

Assays:
[1] = biological target: T1, SPPL2a (Homo sapiens, UniProt Q8TCT8); experiment: FBA/SPPL2a co-transfected HEK 293T cell cleavage assay (Aβ ELISA, Western blot); format: cell-based; settings: for inhibition of xAβ1-25/K16A secretion (in words) / inhibition at 25 µM: 25 μM; for IC50: HEK cells, 24 h, xAβ1-25/K16A by Aβ ELISA, mean ± standard error, read-out: IC50 on FBA/SPPL co-transfected cells; for inhibition at 25 µM: HEK-293T, DMSO = 100%, read-out: inhibition of the SPP/SPPLs; for rank order of inhibition: number in parenthesis in Table 3
T1 construct: expressed in transfected cells; host or cells: HEK 293T
T1 sequence (Q8TCT8 26-520): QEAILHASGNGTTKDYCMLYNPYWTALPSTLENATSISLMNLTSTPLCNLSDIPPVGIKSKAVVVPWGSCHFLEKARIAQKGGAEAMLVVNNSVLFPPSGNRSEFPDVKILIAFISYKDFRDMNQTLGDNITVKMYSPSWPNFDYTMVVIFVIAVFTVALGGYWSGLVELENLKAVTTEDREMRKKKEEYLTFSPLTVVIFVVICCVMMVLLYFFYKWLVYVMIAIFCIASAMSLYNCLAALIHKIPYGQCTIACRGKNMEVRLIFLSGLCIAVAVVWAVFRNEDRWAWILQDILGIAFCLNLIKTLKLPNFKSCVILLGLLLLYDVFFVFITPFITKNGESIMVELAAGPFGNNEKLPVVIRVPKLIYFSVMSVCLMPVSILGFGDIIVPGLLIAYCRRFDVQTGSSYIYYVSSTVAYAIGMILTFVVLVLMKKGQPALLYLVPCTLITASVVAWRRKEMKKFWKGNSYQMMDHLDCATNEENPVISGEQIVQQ
Source text: (§1) Expression constructs in pcDNA6 for COOH-terminal FLAG (DYKDDDDK) and strep (WSHPQFEK) tagged SPPL2a, SPPL2b, hSPP and pSPP were generated as previously described. Untagged versions of all enzymes were also made and ligated into the pAG3 vector. Substrates (Fig 1) were designed as follows: FLAG-BRI2_1-81- Aβ1-25/K16A (FBA). The K16A mutation was incorporated to prevent potential α-secretase cleavage that would preclude ELISA based detection of the released COOH-terminal fragment. The substrate DNA was cloned into the expression vector pcDNA6. Constructs were confirmed by DNA sequencing. The overexpression of substrates was performed by transiently transfecting human embryonic kidney (HEK 293T) cells with or without SPP/SPPL vectors. Cells were grown in DMEM media supplemented with Hyclone 10% fetal bovine serum (GE, Logan, Utah, USA) and 1% penicillin/streptomycin (Life Technologies, Grand Island, NY, USA). Briefly, 2.7 μg DNA was applied to a 75% confluent 6 well plate (Corning, Tewksbury, MA, USA) using the polycation polyethylenimine (PEI) transfection method. Inhibitor testing experiments were conducted in 48 well plates with appropriately adjusted amounts of DNA and PEI and incubated 12–16 hours, after which the growth medium was replaced with fresh medium. DMSO (Sigma, St. Louis, MO, USA) and GSIs were added at the appropriate concentration. The GSIs, L685,458 and Compound W were purchased from Tocris (Tocris, Bristol, UK). (Z-LL)2 ketone, Compound E, DAPT, GSI II were purchased from Calbiochem (Merck Millipore, Billerica, MA, USA). LY-411,575 was synthesized by A. Fauq at the Mayo Clinic Chemical Core. Twenty-four hours later, the medium was collected for assay by ELISA and MS. A20 cells (TIB-208) (ATCC, Manassas, VA, USA) were cultured in RPMI-1640 medium (ATCC) supplied with 10% fetal bovine serum, 1% penicillin/streptomycin and 0.05 mM 2-mercaptoethanol (Life Technologies). At the density of 5x10^5 cells/ml, A20 cells were spun down at 1000 g for 2 min and resuspended in fresh medium supplied with DMSO or GSIs and incubated for 16 hr.
(§2) Sandwich ELISAs used for Aβ detection were performed as previously described. Briefly, Aβ and Aβ adducts with substrate TMD in conditioned media was captured with Ab5 antibody (human Aβ1–16 specific) and detected with horseradish peroxidase mAb 4G8 (Covance, Princeton, NJ, USA). Synthetic Aβ1–40 was used as standard. All ELISAs were developed with TMB substrate (KPL, Gaithersburg, Maryland, USA). Bis-Tris precast gels (Biorad, Hercules, CA, USA) were used for all SDS-PAGE. Monoclonal anti-FLAG M2 antibody (Sigma) and Aβ1–16 antibody 6E10 (Covance) were used for Western blotting. Antisera against SPPL2a, SPPL2b, hSPP and pSPP were generated as previously described and were used at dilution of 1:1000 for Western blotting. Anti-CD74 In-1 antibody (BD Bioscience, San Jose, CA, USA) was used for A20 cell lysate Western blotting at dilution of 1:1000.

[2] = biological target: T2, SPPL2b (Homo sapiens, UniProt Q8TCT7); experiment: FBA/SPPL2b co-transfected HEK 293T cell cleavage assay (Aβ ELISA, Western blot, IP/MS); format: cell-based; settings: for inhibition of xAβ1-25/K16A secretion (in words) / inhibition at 25 µM: 25 μM, ELISA; for inhibition of FBA cleavage (10 kD ICD) by Western blot: Fig 3C upper panel; for IC50: HEK cells, 24 h, xAβ1-25/K16A by Aβ ELISA, mean ± standard error, read-out: IC50 on FBA/SPPL co-transfected cells; for inhibition at 25 µM: DMSO = 100%, read-out: inhibition of the SPP/SPPLs; for rank order of inhibition: number in parenthesis in Table 3
T2 construct: expressed in transfected cells; host or cells: HEK 293T
T2 sequence (Q8TCT7 26-592): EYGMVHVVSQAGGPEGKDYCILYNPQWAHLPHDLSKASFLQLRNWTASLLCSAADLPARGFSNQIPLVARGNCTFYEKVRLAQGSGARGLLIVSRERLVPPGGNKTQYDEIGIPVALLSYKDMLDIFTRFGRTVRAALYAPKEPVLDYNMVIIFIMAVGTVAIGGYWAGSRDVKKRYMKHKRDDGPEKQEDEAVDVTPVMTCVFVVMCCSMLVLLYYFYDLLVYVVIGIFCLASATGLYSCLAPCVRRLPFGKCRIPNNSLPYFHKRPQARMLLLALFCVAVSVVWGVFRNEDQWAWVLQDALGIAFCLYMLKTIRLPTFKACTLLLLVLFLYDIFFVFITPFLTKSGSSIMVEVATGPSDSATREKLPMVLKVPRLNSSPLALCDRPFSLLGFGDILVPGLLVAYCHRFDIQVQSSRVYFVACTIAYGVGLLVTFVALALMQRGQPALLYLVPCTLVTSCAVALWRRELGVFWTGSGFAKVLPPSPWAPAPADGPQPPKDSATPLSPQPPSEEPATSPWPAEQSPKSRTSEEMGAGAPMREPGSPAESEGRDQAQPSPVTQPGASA
Source text: as §1, §2
Immunoprecipitation and mass spectrometry of xAβ1–25 in conditioned media were performed as previously described. In this study, 10 ml conditioned media were used for each experiment. ICDs were immunoprecipitated with anti-FLAG M2 magnetic beads. Cells from 10 cm dished treated with DMSO or 20 μM LY-411,575 were used for each test.

[3] = 10 μM, Western blot anti-FLAG M2

SMILES	inhibition of xAβ1-25/K16A secretion (in words) ([1]; ELISA)	inhibition of xAβ1-25/K16A secretion (in words) [2]	inhibition of FBA cleavage (10 kD ICD) by Western blot [2]	inhibition of SPPL2a in dose response ([1]; at the doses tested, ELISA) [%]	IC50 [1] [µM]	inhibition at 25 µM ([1]; ELISA) [%]	rank order of inhibition [1]	cleavage products in conditioned media by IP/MS ([2]; 20 μM)	IC50 [2] [µM]	inhibition at 25 µM ([2]; HEK-293T) [%]	rank order of inhibition [2]	FBA cleavage by co-transfected SPPL (in words) ([1]; 10 μM, Aβ ELISA, Fig 1D)	generation of the SPP/SPPL dependent 10 kDa ICD [1, 3]	FBA cleavage by co-transfected SPPL (in words) ([2]; 10 μM, Aβ ELISA, Fig 1D)	generation of the SPP/SPPL dependent 10 kDa ICD [2, 3]	inhibition at 10 µM ([2]; HEK-293T, 10 μM, overnight, Aβ ELISA) [%]
C[C@H](NC(=O)Cc1cc(F)cc(F)c1)C(=O)NC(C(=O)OC(C)(C)C)c1ccccc1 (stereo partly shown) [DAPT]	does not inhibit	does not inhibit	slightly reduce	–	–	–	–	–	–	–	–	–	–	–	–	–
C[C@H](NC(=O)Cc1cc(F)cc(F)c1)C(=O)N[C@H]1N=C(c2ccccc2)c2ccccc2N(C)C1=O [Compound E]	–	did not show inhibition	negligible effect	< 50	–	–	–	–	–	–	–	–	–	–	–	–
C[C@H](NC(=O)[C@@H](O)c1cc(F)cc(F)c1)C(=O)N[C@@H]1C(=O)N(C)c2ccccc2-c2ccccc21 [LY-411,575]	largely inhibited	largely inhibited	greatly inhibit	–	0.051 ± 0.079	> 90	1	No major cleavage product was detected	5.5 ± 0.122	> 90	4	–	–	–	–	–
CC(C)C[C@H](NC(=O)OCc1ccccc1)C(=O)N[C@@H](CC(C)C)C(=O)NCC(=O)CNC(=O)[C@H](CC(C)C)NC(=O)[C@H](CC(C)C)NC(=O)OCc1ccccc1 [(Z-LL)2 ketone]	largely inhibited	largely inhibited	greatly inhibit	–	0.177 ± 0.099	> 90	2	–	2.14 ± 0.143	> 90	2	largely inhibited	significantly reduced	largely inhibited	significantly reduced	> 75
CC[C@H](C)[C@H](NC(=O)[C@@H](NC(=O)OC(C)(C)C)C(C)C)C(=O)NC(C)C(=O)C(F)(F)C(=O)N[C@H](C(=O)N[C@H](C(=O)OC)[C@@H](C)CC)C(C)C (stereo partly shown) [GSI II] (Boc-VI[X1]VI-OMe)	efficiently inhibited; also recorded: largely inhibited	efficiently inhibited; also recorded: largely inhibited	greatly inhibit	–	8.8 ± 0.094	–	4	–	3.6 ± 0.121	–	3	–	–	–	–	–
